Results on four compounds are retold here after patent US11998610B2, “Conjugates and methods of using the same” (Flagship Pioneering Innovations V, Inc., priority 2018, dated 2024).

SMILES strings stand for the structures. Non-standard residues stand in square brackets, D forms with d. Residues, ends and D or L forms follow the SMILES beside them. *: point of attachment. Octanoyl = CCCCCCCC(=O)*; Bz = O=C(c1ccccc1)*

The subject of one data set is CT26.CL25 cells. The experiment in a line: Cell viability readout (CellTiter-Glo) with bacteria-free media. It is filed as cell-based, mouse. To be noted: 72 h. As for the experimental part:
Example 100: Cell-Based Assay of Bacterial Enzymes with Mammalian CT26.CL25 Mouse Colorectal Carcinoma Viability Readout
Bacteria-free media was incubated with the indicated test compound. ((R)—N1-(2-(methylamino)ethyl)-2-octanamidosuccinamide, a recognition element-linker conjugate lacking a payload, was serially diluted 1:1000 in DMSO and […] in medium+10% FBS to give a final concentration of 10 nM. Compound 35, Compound 76, Compound 77, Compound 78, Compound 79, and SN-38 were serially diluted 1:1000 in DMSO and 1:1000 in medium to give a final concentration of 10 nM, and then the bacteria-free supernatants were tested for their ability to kill mammalian cells. As an additional control, the test compound will also be incubated with bacteria-free media. The above steps can also be performed in the presence of E. coli (CFT073 ATCC 700928, Nissle 1917, or BL21 (DE3)) to effect cleavage of the conjugates of the application.
On Day 1, CT26.CL25 cells (15,000 cells/well) were seeded in triplicate into a 24 well plate and incubated overnight in 100 μL of complete medium. The reactions (bacteria or media blank) was pelleted by centrifugation, and then the supernatant was passed through a 0.2 μm sterile filter to remove residual bacteria.
On Day 2, 300 μL of a 10 nM solution of each compound in media were applied to separate wells of CT26.CL25 cells as prepared on Day 1. The cells were incubated at 37° C. for 72 h. After this point, viability was assessed using a CellTiter-Glo kit.
Binning of the compounds was achieved by measuring cell growth or arrest (e.g. remaining cells are >90% viable, >80% viable, >70% viable, >60% viable, >50% viable, >40% viable, >30% viable, >20% viable, or >10% viable).
In general terms: In ATP-based viability assays light output follows the ATP content of the culture.

The next data set has as its system E. coli BL21(DE3). Description: Cell-based assay with ClbP with LCMS, ClbP negative strain. Particulars: 10 μM compound, 37° C., 20 h. In a few lines: (§1)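 Compound (10 μM final) incubated 20 h at 37° C, aerobically, with 1:40-diluted overnight cultures of ClbP-positive E. coli or negative BL21(DE3), in duplicate, alongside uninoculated LB. Remaining parent quantified by LC-MS/MS (MRM) after acetonitrile quench, expressed as percent of media-alone.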

Data set [1] can be described thus: In vitro Colonic Material Stability Assay. In kind it is in vitro ADME. Particulars: colonic material slurry, anaerobic, 1 or 10 μM, 24 h. In short, it runs like this: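 Compounds were added at 1 or 10 μM final to colonic material slurry (6.7 μL of 15% w/v slurry per 1 mL YCFAC or similar medium). Samples taken at 0–2880 min were acetonitrile-quenched and the remaining compound quantified by LC/MS.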

In data set [2] the test system is E. coli CFT073 ATCC 700928 and/or E. coli Nissle 1917. The experiment in a line: Cell-based assay with ClbP with LCMS, ClbP positive strain. Particulars: for % Remaining in ClbP Positve Relative to Media-Only: ClbP-encoding E. coli, 10 μM compound, 37° C., 20 h. In a few lines:
as §1

The subject of a further data set is WT ClbP. The experiment in a line: Assay with purified ClbP protein (LCMS). Particulars: 20 μM WT ClbP, room temperature, 24 h. In kind it is biochemical, E. coli. As for the experimental part:
This example is representative of the method described in Example 91 the soluble peptidase domain (amino acids 38 to 375) of ClbP or the catalytically inert mutant S95A was cloned into pET28a using previously defined boundaries as a starting point (Brotherton, J. Am. Chem. Soc., 135:3359-3362, 2013).
WT ClbP or S95A ClbP was isolated as an N-terminally tagged HiS6-SUMO1-fusion protein from […] using E. coli BL21(DE3)RIPL to express the protein. The cells were lysed in 30 mM Tris pH 8.0, 300 mM NaCl, 10% (v/v) glycerol, benzonase (Sigma-Millipore), lysozyme, B-per (ThermoFisher), and Y-per (ThermoFisher). The lysate was clarified via centrifugation (13,000 g, 20 min), and the supernatant was incubated with HiBond Ni-NTA agarose (5 mL). The resin was subsequently washed with wash buffer (30 mM Tris pH 7.5, 250 mM NaCl, 10 mM imidazole, 3% (v/v) glycerol, and 2 mM TCEP). The resin was incubated at 30° C. for 1 h with 1.4 mg ULP1 protease. The resin was then washed with an additional fraction of wash buffer. Centrifuge filtration was used to concentrate the protein, and the concentrated protein was subsequently applied to a 16/600 Superdex 200 size exclusion column with an isocratic elution of 25 mM HEPES, 25 mM Tris pH 7.4, 325 mM NaCl, 10 mM KCl and 3% (v/v) glycerol at a flow rate of […]. The fractions containing the protein were determined by SDS-PAGE, combined, and concentrated by centrifuge filtration. 3 mM TCEP was added to the concentrated protein, which was then aliquoted, flash frozen in liquid N2, and stored at −80° C.
This example is representative of the method described in Example D, ClbP was incubated with test compounds in an in vitro assay. In a typical assay, 0, 1, or 20 μM purified WT or S95A ClbP was incubated with 100 or 500 μM compound in reaction buffer (50 mM Tris-HCl pH 7.5, 37.5 mM NaCl) at room temperature for 24 h. The total volume of this reaction was 150 μL.
After 24 h, 2 volumes of acetonitrile (300 μL) were added to the reaction to quench the solution.
The reaction was centrifuged (4,000 g, 15 min), and then the supernatant was analyzed by LCMS. 5 μL of the supernatant was injected onto an Acquity UPLC BEH C18 1.7 μm 2.1×100 column. Buffer A was 0.1% (v/v) formic acid in water and buffer B was 0.1% (v/v) formic acid in acetonitrile. The flow rate was 0.5 mL/min. The initial % B was 10, which was held for 30 s then ramped up to 90% B over 3 min, held at 90% B for 1 min, ramped down to 10% B over 15 s, and then held at 10% B for 15 s. The UV-Vis spectrum from 210-400 nm was monitored with 3.6 nm resolution. Positive and negative mode ESI were monitored from 100-1000 m/z with a 20 V cone voltage at 5 Hz sampling frequency in centroid collection.
The relative starting material remaining in the WT ClbP reaction was determined by LCMS and then compared to the residual starting material in the no-enzyme and catalytically inert enzyme (S95A ClbP) reactions. In an ideal case, the amount of residual starting material in the WT ClbP reaction was <25% of the amount in the S95A ClbP and no-enzyme conditions. In an acceptable case, the amount of residual starting material in the WT ClbP reaction was 25-75% of the amount in the S95A ClbP and no-enzyme conditions. In a non-preferred case, the amount of residual starting material in the WT ClbP reaction was >75% of the amount in the S95A ClbP and no-enzyme conditions.
Formation of the anticipated product was likewise quantified by LCMS analysis and confirmed by coelution with an external product standard. In an ideal case, the amount of product formed in the WT ClbP reaction corresponded to >75% of the theoretical maximum. In an acceptable case, the amount of product formed in the WT ClbP reaction corresponded to 25-75% of the theoretical maximum. In a non-preferred case, the amount of product formed in the WT ClbP reaction corresponded to <25% of the theoretical maximum.

On to `CCCCCCCC(=O)N[C@H](CC(N)=O)C(=O)NCCNC` [(R)—N1-(2-(methylamino)ethyl)-2-octanamidosuccinamide, reference compound], for which the “Bacteria-free media (Luminescence, average of three runs)” value in the data set with CT26.CL25 cells (0.01 µM) was 278313.
Turning to `CCCCCCCC(=O)N[C@H](CC(=O)O)C(=O)N[C@@H](C)C(=O)OC` [Example 8, (R)-4-(((S)-1-methoxy-1-oxopropan-2-yl)amino)-3-octanamido-4-oxobutanoic acid] (Octanoyl-[dD]-Ala-OMe), the “% Remaining in ClbP Negative Relative to Media-Only” value in the data set with E. coli BL21(DE3) was “+ (between 25-75% compound remaining in the 20 μM WT ClbP reaction relative to the no-enzyme control)”. Besides, the “Assay 3 (% Remaining at 24 h)” value in data set [1] was “B (25-75% of the tested compound remaining)”. Further, the “% Remaining in ClbP Positve Relative to Media-Only” value in data set [2] is reported as “− (>75% compound remaining in the 20 μM WT ClbP reaction relative to the no-enzyme control)”. Besides, the “Status (compound remaining in WT ClbP reaction relative to no-enzyme control)” value in the data set on WT ClbP (500 μM compound) was “− (>75% compound remaining in the 20 μM WT ClbP reaction relative to the no-enzyme control)”.
As to `COC(=O)[C@H](C)NC(=O)[C@@H](CC(N)=O)NC(=O)c1ccccc1` [Example 13, Methyl benzoyl-D-asparaginyl-L-alaninate] (Bz-[dN]-Ala-OMe), in the data set on E. coli BL21(DE3), the “% Remaining in ClbP Negative Relative to Media-Only” value was “+ (between 25-75% compound remaining in the 20 μM WT ClbP reaction relative to the no-enzyme control)”. Besides, in data set [1], the “Assay 3 (% Remaining at 24 h)” value is on record as “C (>75% of the tested compound remaining)”. In data set [2], the “% Remaining in ClbP Positve Relative to Media-Only” value is on record as “++ (<25% compound remaining in the 20 μM WT ClbP reaction relative to the control)”. Moreover, in data set [2] (conclusion from Table 4), the “Difference between the ClbP Positive and ClbP Negative release profiles” value is listed as “particularly favorable difference”. In addition, the “Status (compound remaining in WT ClbP reaction relative to no-enzyme control)” value with WT ClbP (100 μM compound) is “++ (<25% compound remaining in the 20 μM WT ClbP reaction relative to the control)”.
As for `CCc1c2c(nc3ccc(O)cc13)-c1cc3c(c(=O)n1C2)COC(=O)[C@]3(O)CC` [SN-38, 7-ethyl-10-hydroxy-camptothecin, reference compound], in the data set on CT26.CL25 cells (10 nM compound, CT26.CL25 cells, CellTiter-Glo), the “Bacteria-free media (Luminescence, average of three runs)” value was 121387.
